Measured values published in publication PMC11314561, “Design and Synthesis of Novel Aminoindazole-pyrrolo[2,3-b]pyridine Inhibitors of IKKα That Selectively Perturb Cellular Non-Canonical NF-κB Signalling” (Molecules, 2024).

Columns and labels:
Assay in all cases: kinase panel
Type in all cases: biochemical
[1] = target: CDK2/cyclinA(h) (Homo sapiens, UniProt P24941)
Method in brief: (§1)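 Three compounds in the series were profiled against a panel of 231 kinases, and activity is reported as % inhibition. For one compound, a subset of 98 kinases was selected on the basis of its structural similarity to another series member.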

[2] = target: T1, Mer(h) (Homo sapiens, UniProt Q12866)
T1 sequence (Q12866 21-999): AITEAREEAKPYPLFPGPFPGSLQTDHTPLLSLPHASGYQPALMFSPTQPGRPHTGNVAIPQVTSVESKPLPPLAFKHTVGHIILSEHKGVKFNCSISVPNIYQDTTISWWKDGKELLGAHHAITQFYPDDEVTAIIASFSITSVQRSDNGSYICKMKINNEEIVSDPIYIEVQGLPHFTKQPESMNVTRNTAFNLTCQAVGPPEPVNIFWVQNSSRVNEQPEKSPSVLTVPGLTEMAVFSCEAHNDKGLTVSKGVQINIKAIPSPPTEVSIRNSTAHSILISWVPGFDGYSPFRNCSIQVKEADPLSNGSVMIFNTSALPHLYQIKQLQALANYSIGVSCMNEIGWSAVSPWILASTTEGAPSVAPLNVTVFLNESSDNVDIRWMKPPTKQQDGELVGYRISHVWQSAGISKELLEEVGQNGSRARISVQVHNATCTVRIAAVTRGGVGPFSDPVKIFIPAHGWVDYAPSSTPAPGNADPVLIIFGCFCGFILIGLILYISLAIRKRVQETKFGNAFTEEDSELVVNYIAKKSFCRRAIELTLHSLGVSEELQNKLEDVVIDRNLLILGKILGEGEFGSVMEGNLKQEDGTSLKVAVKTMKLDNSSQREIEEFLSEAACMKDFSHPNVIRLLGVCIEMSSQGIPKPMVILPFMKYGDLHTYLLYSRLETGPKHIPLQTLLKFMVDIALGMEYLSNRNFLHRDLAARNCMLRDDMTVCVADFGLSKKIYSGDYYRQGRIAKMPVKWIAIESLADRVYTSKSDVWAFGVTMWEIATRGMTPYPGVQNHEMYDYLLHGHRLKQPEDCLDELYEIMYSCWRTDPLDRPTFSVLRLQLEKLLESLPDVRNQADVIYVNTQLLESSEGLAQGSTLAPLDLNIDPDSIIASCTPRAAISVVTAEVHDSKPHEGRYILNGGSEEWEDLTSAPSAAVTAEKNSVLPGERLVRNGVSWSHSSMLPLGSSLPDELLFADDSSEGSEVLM
Method in brief: as §1

[3] = target: CHK2(h) (Homo sapiens, UniProt O96017)
Method in brief: as §1

[4] = target: Met(h) (Homo sapiens, UniProt P08581)
Sequence of Met(h) (P08581 25-1390): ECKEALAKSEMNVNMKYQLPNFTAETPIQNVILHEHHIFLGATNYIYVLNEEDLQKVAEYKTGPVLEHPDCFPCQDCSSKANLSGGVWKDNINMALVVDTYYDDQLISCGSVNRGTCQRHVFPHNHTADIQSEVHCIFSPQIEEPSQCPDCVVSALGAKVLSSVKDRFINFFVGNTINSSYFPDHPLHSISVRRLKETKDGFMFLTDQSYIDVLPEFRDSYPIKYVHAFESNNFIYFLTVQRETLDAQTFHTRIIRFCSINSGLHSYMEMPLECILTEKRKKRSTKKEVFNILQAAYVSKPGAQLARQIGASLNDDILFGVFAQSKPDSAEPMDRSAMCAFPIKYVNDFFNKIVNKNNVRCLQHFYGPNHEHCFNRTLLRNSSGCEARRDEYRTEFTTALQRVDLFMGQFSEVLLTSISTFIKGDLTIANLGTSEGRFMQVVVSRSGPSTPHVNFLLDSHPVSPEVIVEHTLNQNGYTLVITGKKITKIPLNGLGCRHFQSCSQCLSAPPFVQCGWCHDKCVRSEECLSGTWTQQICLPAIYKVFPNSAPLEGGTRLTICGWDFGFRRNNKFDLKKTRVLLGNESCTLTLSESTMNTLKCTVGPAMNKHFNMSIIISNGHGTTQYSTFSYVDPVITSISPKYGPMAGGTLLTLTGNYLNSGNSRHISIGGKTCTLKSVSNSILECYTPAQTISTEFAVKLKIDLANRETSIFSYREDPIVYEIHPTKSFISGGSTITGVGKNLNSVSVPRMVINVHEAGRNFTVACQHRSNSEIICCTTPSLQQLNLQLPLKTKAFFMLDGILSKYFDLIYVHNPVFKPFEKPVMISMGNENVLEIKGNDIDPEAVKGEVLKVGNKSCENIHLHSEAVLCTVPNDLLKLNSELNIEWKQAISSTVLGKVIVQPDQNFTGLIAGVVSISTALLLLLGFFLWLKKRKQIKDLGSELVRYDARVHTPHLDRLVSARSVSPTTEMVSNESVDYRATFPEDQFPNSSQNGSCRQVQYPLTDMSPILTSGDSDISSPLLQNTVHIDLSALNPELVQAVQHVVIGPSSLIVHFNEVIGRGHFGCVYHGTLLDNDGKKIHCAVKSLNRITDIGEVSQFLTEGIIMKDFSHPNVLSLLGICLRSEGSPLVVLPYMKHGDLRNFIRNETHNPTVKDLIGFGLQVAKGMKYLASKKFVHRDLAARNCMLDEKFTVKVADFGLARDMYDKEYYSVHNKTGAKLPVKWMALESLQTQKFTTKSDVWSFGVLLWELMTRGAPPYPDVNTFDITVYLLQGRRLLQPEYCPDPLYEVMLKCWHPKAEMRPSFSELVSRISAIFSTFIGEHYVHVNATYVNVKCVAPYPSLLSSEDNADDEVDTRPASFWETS
Method in brief: as §1

[5] = target: Pim-1(h) (Homo sapiens, UniProt P11309)
Sequence of Pim-1(h) (P11309 whole entry): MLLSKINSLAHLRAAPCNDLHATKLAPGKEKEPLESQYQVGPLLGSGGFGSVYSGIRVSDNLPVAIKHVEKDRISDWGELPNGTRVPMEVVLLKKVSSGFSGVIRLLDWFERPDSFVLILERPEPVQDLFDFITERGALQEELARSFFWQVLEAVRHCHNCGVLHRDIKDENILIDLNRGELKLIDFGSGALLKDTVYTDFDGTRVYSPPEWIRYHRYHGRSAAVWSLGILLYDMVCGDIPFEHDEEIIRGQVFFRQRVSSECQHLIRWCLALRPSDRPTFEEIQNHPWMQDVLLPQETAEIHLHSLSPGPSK
Method in brief: as §1

[6] = target: CaMKIδ(h) (Homo sapiens, UniProt Q8IU85)
Sequence of CaMKIδ(h) (Q8IU85 whole entry): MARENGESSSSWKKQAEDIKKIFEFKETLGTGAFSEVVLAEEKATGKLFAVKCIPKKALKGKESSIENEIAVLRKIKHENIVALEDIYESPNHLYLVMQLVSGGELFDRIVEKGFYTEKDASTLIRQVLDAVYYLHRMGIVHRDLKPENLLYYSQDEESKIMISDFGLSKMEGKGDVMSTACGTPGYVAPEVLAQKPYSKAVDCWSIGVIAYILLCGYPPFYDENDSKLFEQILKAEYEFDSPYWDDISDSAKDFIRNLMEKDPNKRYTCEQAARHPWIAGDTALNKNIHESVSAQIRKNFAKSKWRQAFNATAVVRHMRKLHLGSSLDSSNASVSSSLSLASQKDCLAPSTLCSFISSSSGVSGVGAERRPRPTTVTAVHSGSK
Method in brief: as §1

[7] = target: Rsk1(h) (Homo sapiens, UniProt Q15418)
Method in brief: as §1

[8] = target: PKCα(h) (Homo sapiens, UniProt P17252)
Method in brief: as §1

[9] = target: Flt1(h) (Homo sapiens, UniProt P17948)
Sequence of Flt1(h) (P17948 27-1338): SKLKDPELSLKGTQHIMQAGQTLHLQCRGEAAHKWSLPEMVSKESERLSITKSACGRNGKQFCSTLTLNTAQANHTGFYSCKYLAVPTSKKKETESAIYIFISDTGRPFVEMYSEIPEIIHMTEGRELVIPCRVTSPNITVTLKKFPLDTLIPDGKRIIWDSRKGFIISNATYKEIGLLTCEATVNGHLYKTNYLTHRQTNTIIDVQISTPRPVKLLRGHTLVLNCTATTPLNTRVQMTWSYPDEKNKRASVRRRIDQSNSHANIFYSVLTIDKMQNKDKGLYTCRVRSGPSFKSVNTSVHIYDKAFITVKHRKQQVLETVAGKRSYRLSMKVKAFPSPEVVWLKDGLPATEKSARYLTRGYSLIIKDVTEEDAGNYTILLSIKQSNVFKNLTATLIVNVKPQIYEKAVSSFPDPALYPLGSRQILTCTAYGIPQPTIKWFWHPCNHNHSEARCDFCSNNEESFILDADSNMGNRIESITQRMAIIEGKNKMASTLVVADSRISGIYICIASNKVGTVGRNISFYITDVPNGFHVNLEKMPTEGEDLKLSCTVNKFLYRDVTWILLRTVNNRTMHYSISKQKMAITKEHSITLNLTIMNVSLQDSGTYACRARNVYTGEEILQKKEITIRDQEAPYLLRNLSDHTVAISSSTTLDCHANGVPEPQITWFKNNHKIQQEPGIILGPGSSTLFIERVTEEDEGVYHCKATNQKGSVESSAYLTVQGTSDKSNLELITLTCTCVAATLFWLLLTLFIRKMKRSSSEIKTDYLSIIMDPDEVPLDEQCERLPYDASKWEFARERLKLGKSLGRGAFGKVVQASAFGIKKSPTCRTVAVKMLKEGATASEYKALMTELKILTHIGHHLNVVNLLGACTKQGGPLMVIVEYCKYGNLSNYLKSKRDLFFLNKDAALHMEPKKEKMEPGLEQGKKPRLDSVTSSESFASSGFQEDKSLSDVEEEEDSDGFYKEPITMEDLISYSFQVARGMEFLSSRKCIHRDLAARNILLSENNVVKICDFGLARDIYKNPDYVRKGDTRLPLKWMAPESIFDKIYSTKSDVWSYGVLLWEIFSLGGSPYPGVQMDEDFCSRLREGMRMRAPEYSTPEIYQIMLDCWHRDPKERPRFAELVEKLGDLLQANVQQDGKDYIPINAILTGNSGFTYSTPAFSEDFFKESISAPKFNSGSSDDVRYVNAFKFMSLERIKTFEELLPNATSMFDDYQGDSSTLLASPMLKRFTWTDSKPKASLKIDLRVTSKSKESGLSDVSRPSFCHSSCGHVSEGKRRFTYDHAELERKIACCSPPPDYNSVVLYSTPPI
Method in brief: as §1

[10] = target: CDK3/cyclinE(h) (Homo sapiens, UniProt Q00526)
Sequence of CDK3/cyclinE(h) (Q00526 whole entry): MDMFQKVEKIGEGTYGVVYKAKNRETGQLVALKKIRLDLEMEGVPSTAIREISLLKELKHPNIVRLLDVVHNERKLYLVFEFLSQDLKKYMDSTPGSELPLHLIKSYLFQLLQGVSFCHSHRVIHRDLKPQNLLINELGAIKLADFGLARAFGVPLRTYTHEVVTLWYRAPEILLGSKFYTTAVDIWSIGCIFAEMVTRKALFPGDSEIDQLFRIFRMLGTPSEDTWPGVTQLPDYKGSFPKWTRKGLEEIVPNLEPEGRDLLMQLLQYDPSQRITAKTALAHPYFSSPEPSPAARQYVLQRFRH
Sequence of CDK3/cyclinE(h) (P24864 whole entry partner): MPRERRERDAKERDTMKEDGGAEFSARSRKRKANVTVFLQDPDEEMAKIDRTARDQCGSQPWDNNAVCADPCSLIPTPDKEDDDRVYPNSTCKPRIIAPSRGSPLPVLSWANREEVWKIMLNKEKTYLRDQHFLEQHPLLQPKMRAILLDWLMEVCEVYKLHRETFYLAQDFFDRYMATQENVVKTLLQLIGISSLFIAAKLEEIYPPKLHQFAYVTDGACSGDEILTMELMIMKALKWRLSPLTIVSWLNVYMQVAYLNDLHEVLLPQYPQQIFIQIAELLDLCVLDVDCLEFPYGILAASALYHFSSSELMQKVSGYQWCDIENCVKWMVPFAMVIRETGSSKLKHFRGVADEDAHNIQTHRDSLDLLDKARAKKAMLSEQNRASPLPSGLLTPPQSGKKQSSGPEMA
Method in brief: as §1

[11] = target: T2, SAPK3(h) (Homo sapiens, UniProt P53778)
T2 sequence (P53778 1-367): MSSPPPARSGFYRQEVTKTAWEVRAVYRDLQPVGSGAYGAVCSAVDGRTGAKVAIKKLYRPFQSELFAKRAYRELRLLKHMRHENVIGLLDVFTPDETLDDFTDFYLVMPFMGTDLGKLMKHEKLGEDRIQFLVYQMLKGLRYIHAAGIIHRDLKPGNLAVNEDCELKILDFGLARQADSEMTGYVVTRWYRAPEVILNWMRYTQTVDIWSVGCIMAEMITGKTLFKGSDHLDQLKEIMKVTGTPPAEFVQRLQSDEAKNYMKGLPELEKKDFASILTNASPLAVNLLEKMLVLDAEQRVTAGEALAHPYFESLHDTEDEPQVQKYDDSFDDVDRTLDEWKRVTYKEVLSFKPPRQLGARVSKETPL
Method in brief: as §1

[12] = target: PKBα(h) (Homo sapiens, UniProt P31749)
Method in brief: as §1

Row | inhibition at 1 µM [1] [%] | inhibition at 1 µM [2] [%] | inhibition at 1 µM [3] [%] | inhibition at 1 µM [4] [%] | inhibition at 1 µM [5] [%] | inhibition at 1 µM [6] [%] | inhibition at 1 µM [7] [%] | inhibition at 1 µM [8] [%] | inhibition at 1 µM [9] [%] | inhibition at 1 µM [10] [%] | inhibition at 1 µM [11] [%] | inhibition at 1 µM [12] [%] | Compound
1 | 61 | 27 | 13 | 14 | -1 | 9 | 2 | 23 | 58 | 45 | 49 | 10 | Nc1n[nH]c2ccc(-c3ccnc4[nH]c(-c5cccc(OCc6ccccc6)c5)cc34)cc12 [Compound 5r [SU1261]]
2 | 37 | 12 | -5 | -3 | 8 | 24 | -18 | -1 | 6 | 37 | 44 | 4 | Nc1n[nH]c2ccc(-c3ccnc4[nH]c(-c5ccnc(OCc6ccccc6)c5)cc34)cc12 [Compound 6g [SU1349]]
3 | 99 | 88 | 28 | 61 | 23 | -8 | 38 | 5 | 94 | 94 | 99 | 8 | Nc1n[nH]c2ccc(-c3ccnc4[nH]c(-c5ccccc5)cc34)cc12 [Compound 4]
